From ChEMBL document CHEMBL3885861, “Open TG-GATES”

Organism: Rattus norvegicus
Assay: Open TG-GATES - Regimen: Daily Repeat
Type: toxicity, organism-based, Sprague-Dawley
Set-up: regimen Daily Repeat, gender Male, age 6 weeks
Settings: in vivo, po, route gavage; for TP / gamma-GTP / ALP / ALT / AST / BUN / CRE / Ca / DBIL / GLC / K / LDH / Na / PL / RALB / TBIL / TC / TG: tissue Plasma; for Bas / Eos / Fbg / Hb / Ht / Lym / MCH / MCV / Mono / Neu / PT / Plat / RBC / Ret / WBC / APTT / MCHC: tissue Blood; for KIDNEY_L / KIDNEY_R / KIDNEY_TOTAL: tissue Kidney; for LIVER: tissue Liver
[1] = 0 mg/kg, […], dose level Control, time 28 day
[2] = 20 mg/kg, 72 h, dose level Low, time 3 day
[3] = 20 mg/kg, […], dose level Low, time 7 day
[4] = 20 mg/kg, […], dose level Low, time 14 day
[5] = 20 mg/kg, […], dose level Low, time 28 day

CCCCc1oc2ccccc2c1C(=O)c1cc(I)c(OCCN(CC)CC)c(I)c1 [AMIODARONE]
TP [1]: 6 g/dL
gamma-GTP [1]: 1 IU/L
TERMINAL_BW [2]: 226.2 g
Bas [2]: 0%
Eos [2]: 0.8%
Fbg [2]: 227.8 mg/dL
Hb [2]: 13.5 g/dL
Ht [2]: 39%
Lym [2]: 78.2%
MCH [2]: 22.1 pg
MCV [2]: 63.9 fL
Mono [2]: 3%
Neu [2]: 16.6%
PT [2]: 12.8 s
Plat [2]: 125.2 x10_4/uL
RBC [2]: 610.8 x10_4/ul
Ret [2]: 6.1%
WBC [2]: 101.8 x10_2/uL
KIDNEY_L [2]: 1 g
KIDNEY_R [2]: 1 g
KIDNEY_TOTAL [2]: 2.1 g
LIVER [2]: 11 g
ALP [2]: 1159.8 IU/L
ALT [2]: 38.8 IU/L
AST [2]: 71 IU/L
BUN [2]: 17 mg/dL
CRE [2]: 0.4 mg/dL
Ca [2]: 10.7 mg/dL
DBIL [2]: 0.088 mg/dL
GLC [2]: 200 mg/dL
K [2]: 3.8 meq/L
LDH [2]: 215.2 IU/L
Na [2]: 140.4 meq/L
PL [2]: 144.2 mg/dL
RALB [2]: 3.4 g/dL
TBIL [2]: 0.1 mg/dL
TC [2]: 72.8 mg/dL
TG [2]: 88.8 mg/dL
TP [2]: 5.7 g/dL
gamma-GTP [2]: 1.6 IU/L
TERMINAL_BW [3]: 267.4 g
TERMINAL_BW [4]: 322 g
TERMINAL_BW [5]: 379.8 g
APTT [3]: 18.5 s
Bas [3]: 0%
Eos [3]: 0.8%
Fbg [3]: 222 mg/dL
Ht [3]: 39.1%
Lym [3]: 79.6%
MCH [3]: 21.1 pg
MCHC [3]: 34.1%
MCV [3]: 62 fL
Mono [3]: 2.8%
Neu [3]: 15.6%
Plat [3]: 126.6 x10_4/uL
RBC [3]: 630 x10_4/ul
Ret [3]: 6.1%
WBC [3]: 117.1 x10_2/uL
APTT [4]: 19.7 s
Bas [4]: 0%
Eos [4]: 1%
Fbg [4]: 216.8 mg/dL
Hb [4]: 14.2 g/dL
Ht [4]: 41.2%
Lym [4]: 79.6%
MCH [4]: 20.4 pg
MCV [4]: 59.2 fL
Mono [4]: 2.8%
Neu [4]: 15.6%
PT [4]: 12.8 s
Plat [4]: 116.8 x10_4/uL
RBC [4]: 696.4 x10_4/ul
Ret [4]: 4.6%
WBC [4]: 84.5 x10_2/uL
APTT [5]: 19.6 s
Bas [5]: 0%
Eos [5]: 1.2%
Fbg [5]: 221.6 mg/dL
Ht [5]: 43.5%
Lym [5]: 78.2%
MCH [5]: 19.6 pg
MCHC [5]: 35.1%
MCV [5]: 56 fL
Mono [5]: 2.8%
Neu [5]: 16.6%
PT [5]: 12.3 s
Plat [5]: 109.6 x10_4/uL
RBC [5]: 777.2 x10_4/ul
Ret [5]: 2.7%
WBC [5]: 117.6 x10_2/uL
KIDNEY_L [3]: 1.1 g
KIDNEY_R [3]: 1.1 g
KIDNEY_TOTAL [3]: 2.2 g
KIDNEY_L [4]: 1.3 g
KIDNEY_R [4]: 1.3 g
KIDNEY_TOTAL [4]: 2.5 g
KIDNEY_L [5]: 1.3 g
KIDNEY_R [5]: 1.3 g
KIDNEY_TOTAL [5]: 2.6 g
LIVER [3]: 12.7 g
LIVER [4]: 14.6 g
LIVER [5]: 15.5 g
ALP [3]: 1065 IU/L
ALT [3]: 33 IU/L
AST [3]: 61.8 IU/L
CRE [3]: 0.4 mg/dL
Ca [3]: 10.7 mg/dL
DBIL [3]: 0.1 mg/dL
GLC [3]: 216.6 mg/dL
K [3]: 3.8 meq/L
LDH [3]: 197.4 IU/L
Na [3]: 140.6 meq/L
RALB [3]: 3.3 g/dL
TBIL [3]: 0.2 mg/dL
TC [3]: 70.8 mg/dL
TG [3]: 89.4 mg/dL
TP [3]: 5.5 g/dL
gamma-GTP [3]: 1.2 IU/L
ALP [4]: 861.4 IU/L
ALT [4]: 38 IU/L
AST [4]: 63.6 IU/L
BUN [4]: 17.4 mg/dL
CRE [4]: 0.4 mg/dL
Ca [4]: 10.5 mg/dL
DBIL [4]: 0.1 mg/dL
GLC [4]: 220.6 mg/dL
K [4]: 4 meq/L
LDH [4]: 196.2 IU/L
Na [4]: 139.6 meq/L
PL [4]: 161.6 mg/dL
RALB [4]: 3.3 g/dL
TBIL [4]: 0.2 mg/dL
TC [4]: 81.2 mg/dL
TG [4]: 148.2 mg/dL
TP [4]: 5.7 g/dL
gamma-GTP [4]: 1.4 IU/L
ALP [5]: 765.6 IU/L
ALT [5]: 40 IU/L
AST [5]: 66.2 IU/L
BUN [5]: 18.2 mg/dL
CRE [5]: 0.5 mg/dL
Ca [5]: 10.5 mg/dL
DBIL [5]: 0.1 mg/dL
GLC [5]: 213.2 mg/dL
K [5]: 3.8 meq/L
LDH [5]: 192.6 IU/L
Na [5]: 140.4 meq/L
PL [5]: 160.8 mg/dL
RALB [5]: 3.5 g/dL
TBIL [5]: 0.2 mg/dL
TC [5]: 73.8 mg/dL
TG [5]: 164.6 mg/dL
TP [5]: 6.1 g/dL
gamma-GTP [5]: 1.4 IU/L
